Test results published in patent publication US6846825B1, “Antibacterial agents” (British Biotech Pharmaceuticals Limited, priority 1999, dated 2005).
In brackets after ≈: the same amount, converted by molar mass. Like-named read-outs stand apart in the source and are kept apart here.

Columns and labels:
Type in all cases: cell-based
[1] = test system: Staphylococcus capitis (American Type Culture Collection number 35661); experiment: Minimal inhibitory concentration (MIC), two fold serial dilutions in 2×YT broth; conditions: S. capitis ATCC 35661, 2×YT broth, 37° C., 18 hours, lowest concentration that inhibited visible growth
Method: (§1) Minimal inhibitory concentrations (MIC) of compounds of the invention against E. coli strains DH5α (Genotype; F-ω80dlacZΔM15Δ(lacZYA-argF)U169 deoR recA1 endA1 hsdR17(rk^−,mk^+)phoA supE44λ^−thi-1 gyrA96 relA1) obtained from Gibco BRL Life Technologies, or Staphylococcus capitis (American Type Culture Collection number 35661) were determined as follows. Stock solutions of each test compound were prepared by dissolution of the compound in dimethylsulfoxide at 10 mM. For the determination of the minimal inhibitory concentration, two fold serial dilutions were prepared in 2×YT broth (typtone 16 g/1, yeast extract 10 g/1, sodium chloride 5 g/1 obtained from BIO 101 Inc, 1070 Joshua Way, Vista, Calif. 92083, USA) to yield 0.05 ml compound-containing medium per well. Inoculate were prepared from cultures grown overnight in 2×YT broth at 37° C. Cell densities were adjusted to absorbance at 660 nm (A660)=0.1; the optical density-standardised preparations were diluted 1:1000 in 2×YT broth; and each well inoculated with 0.05 ml of the diluted bacteria. Microtiter plates were incubated at 37° C. for 18 hours in a humidified incubator. The MIC (μM) was recorded as the lowest drug concentration that inhibited visible growth.

[2] = test system: E. coli strains DH5α; experiment: as above; conditions: 37° C., 18 hours, lowest concentration that inhibited visible growth
Method: as §1

[3] = test system: Haemophilus Influenza; experiment: MIC against respiratory tract pathogens, Microdilution Broth Method (NCCLS)
Method: (§2) In another experiment, the MICs of the compound of Example 91 were determined against certain respiratory tract pathogens, using the Microdilution Broth Method according to the approved standard of the National Committee for Clinical Laboratory Standards procedure (Methods for dilution antimicrobial susceptibility tests for bacteria that grow aerobically—Fourth Edition ISBN 1-56238-309-4).

[4] = test system: Streptococcus pneumoniae; experiment: as above
Method: as §2

[5] = test system: Moraxella catarrhalis; experiment: as above
Method: as §2

[6] = Staphylococcus capitis, ATCC35661

Structure (SMILES) | MIC [1, 6] | MIC ([2]; Escherichia coli) | MIC [2] | MIC [1] | further results
CC(C)(C)[C@H](NC(=O)[C@H](CC1CCCC1)CN(O)C=O)C(=O)N1CCN(Cc2ccc(-c3ccccc3)cc2)CC1 [Example 52, N-[1S-(4-Biphenyl-4-ylmethyl-piperazine-1-carbonyl)-2,2-dimethyl-propyl]-2R-cyclopentylmethyl-3-(formyl-hydroxy-amino)-propionamide] |  |  | 200 µM (≈ 113 µg/mL) | 6.2 µM (≈ 3.49 µg/mL) | 
CC(C)(C)[C@H](NC(=O)[C@H](CC1CCCC1)CN(O)C=O)C(=O)N1CCN(Cc2ccc3ccccc3c2)CC1 [Example 54, 2R-Cyclopentylmethyl-N-[2,2-dimethyl-1S-(4-naphthalen-2-ylmethyl-piperazine-1-carbonyl)-propyl]-3-(formyl-hydroxy-amino)-propionamid] |  |  | 200 µM (≈ 107 µg/mL) | 3.1 µM (≈ 1.66 µg/mL) | 
CCCC[C@H](CN(O)C=O)C(=O)N[C@H](C(=O)N1CCN(S(=O)(=O)c2ccc(-c3ccccc3)cc2)CC1)C(C)(C)C [Example 78, 2R-[(Formyl-hydroxy-amino)-methyl]-hexanoic acid {1S-[4-(biphenyl-4-sulfonyl)-piperazine-1-carbonyl]-2,2-dimethyl-propyl}-amide] |  |  |  | 200 µM (≈ 117 µg/mL) | 
CCCC[C@H](CN(O)C=O)C(=O)N[C@H](C(=O)N1CCN(C(=O)c2ccc(-c3ccccc3)cc2)CC1)C(C)(C)C [Example 79, 2R-[(Formyl-hydroxy-amino)-methyl]-hexanoic acid {1S-[4-(biphenyl-4-carbonyl)-piperazine-1-carbonyl]-2,2-dimethyl-propyl}-amide] |  |  |  | 6.25 µM (≈ 3.44 µg/mL) | 
CN(C)C(=O)c1ccc(OC2CCN(C(=O)[C@@H](NC(=O)[C@H](CC3CCCC3)CN(O)C=O)C(C)(C)C)CC2)cc1 [Example 88, 4-(1S-{2-[2R-Cyclopentylmethyl-3-(formyl-hydroxy-amino)-propionylamino]-3,3-dimethyl-butyryl}-piperidin-4-yloxy)-N,N-dimethyl-benzamide] | 6.2 µM (≈ 3.46 µg/mL) | 100 µM (≈ 55.9 µg/mL) |  |  | 
CC(C)(C)C(NC(=O)[C@H](CC1CCCC1)CN(O)C=O)C(=O)N1CCC(Oc2ccc(C(=O)N3CCOCC3)cc2)CC1 (stereo partly drawn) [Example 89, 2R-Cyclopentylmethyl-N-(2,2-dimethyl-1S-{4-{4-(morpholine-4-carbonyl)-phenoxy}-piperidine-1-carbonyl}-propyl)-3-(formyl-hydroxy-amino)-propionamide] | 25 µM (≈ 15 µg/mL) | 200 µM (≈ 120 µg/mL) |  |  | 
CC(C)(C)C(NC(=O)[C@H](CC1CCCC1)CN(O)C=O)C(=O)N1CCC(Oc2ccc(C(=O)N3CCC(O)CC3)cc2)CC1 (stereo partly drawn) [Example 91, 2R-Cyclopentylmethyl-3-(formyl-hydroxy-amino)-N-(1S-{4-[4-(4-hydroxy-piperidine-1-carbonyl)-phenoxy]-piperidine-1-carbonyl}-2,2-dimethyl-propyl)-propionamide] | 25 µM (≈ 15.4 µg/mL) | 200 µM (≈ 123 µg/mL) |  |  | MIC ([3]; Haemophilus Influenza 1390): 1 µg/mL (≈ 1.63 µM); MIC ([3]; Haemophilus Influenza 1414): 4 µg/mL (≈ 6.51 µM); MIC ([4]; Streptococcus pneumoniae (PIP) 2391): 0.25 µg/mL (≈ 0.407 µM); MIC ([4]; Streptococcus pneumoniae (PRP) 2390): 0.25 µg/mL (≈ 0.407 µM); MIC ([4]; Streptococcus pneumoniae (PSP) 2403, read-out: MIC): 0.25 µg/mL (≈ 0.407 µM); MIC ([5]; Moraxella catarrhalis 2412): 0.5 µg/mL (≈ 0.813 µM); MIC ([5]; Moraxella catarrhalis 2413): 0.25 µg/mL (≈ 0.407 µM)

Now from value to compound, other results behind:

MIC [1, 6] | MIC ([2]; Escherichia coli) | MIC [2] | Structure (SMILES) | MIC [1] | further results
100 µM (≈ 33.2 µg/mL) |  |  | CCCC[C@H](CN(O)C=O)C(=O)N1CCC(c2ccccc2)CC1 [Example 24, N-Hydroxy-N-[2R-(4-phenyl-piperidine-1-carbonyl)-hexyl]-formamide] |  | 
 | 100 µM (≈ 34.5 µg/mL) |  | CCCC[C@H](CN(O)C=O)C(=O)N1CCN(CCOCCO)CC1 [Example 29, N-Hydroxy-N-(2R-{4-[2-(2-hydroxy-ethoxy)-ethyl]-piperazine-1-carbonyl}-hexyl)-formamide] |  | 
 |  | 200 µM (≈ 97.1 µg/mL) | CCCC[C@H](CN(O)C=O)C(=O)N[C@H](C(=O)N1CCN(Cc2ccccc2C#N)CC1)C(C)(C)C [Example 44, 2R-[(Formyl-hydroxy-amino)-methyl]-hexanoic acid {1S-[4-(2-cyano-benzyl)-piperazine-1-carbonyl]-2,2-dimethyl-propyl}-amide] | 12 µM (≈ 5.83 µg/mL) | 
 |  | 200 µM (≈ 102 µg/mL) | CC(C)(C)[C@H](NC(=O)[C@H](CC1CCCC1)CN(O)C=O)C(=O)N1CCN(Cc2ccccc2C#N)CC1 [Example 50, N-{1S-[4-(2-Cyano-benzyl)-piperazine-1-carbonyl]-2,2-dimethyl-propyl}-2R-cyclopentylmethyl-3-(formyl-hydroxy-amino)-propionamide] | 6.2 µM (≈ 3.17 µg/mL) | 
6.2 µM (≈ 3.22 µg/mL) | 200 µM (≈ 104 µg/mL) |  | CCCC[C@H](CN(O)C=O)C(=O)N[C@H](C(=O)N1CCN(C(=O)c2ccc3c(c2)OCO3)CC1)C(C)(C)C [Example 55, 2R-[(Formyl-hydroxy-amino)-methyl]-hexanoic acid {1S-[4-(3a,7a-dihydro-benzo[1,3]dioxole-5-carbonyl)-piperazine-1-carbonyl]-2,2-dimethyl-propyl}-amide] |  | 
25 µM (≈ 11.5 µg/mL) | 50 µM (≈ 23.1 µg/mL) |  | CCCC[C@H](CN(O)C=O)C(=O)N[C@H](C(=O)N1CCN(Cc2cccnc2)CC1)C(C)(C)C [Example 56, 2R-[(Formyl-hydroxy-amino)methyl]-hexanoic acid [2,2-dimethyl-1S-(4-pyridin-3-ylmethyl-piperazine-1-carbonyl)-propyl]-amide] |  | 
6.2 µM (≈ 3.29 µg/mL) | 100 µM (≈ 53.1 µg/mL) |  | CC(C)(C)[C@H](NC(=O)[C@H](CC1CCCC1)CN(O)C=O)C(=O)N1CCN(Cc2ccc3c(c2)OCO3)CC1 [Example 57, N-[1S-(4-Benzo[1,3]dioxol-5-ylmethyl-piperazine-1-carbonyl)-2,2-dimethyl-propyl]-2R-cyclopentylmethyl-3-(formyl-hydroxy-amino)-propionamide] |  | 
 |  | 200 µM (≈ 99.3 µg/mL) | CCCC[C@H](CN(O)C=O)C(=O)N[C@H](C(=O)N1CCN(C(=O)c2snnc2C)CC1)C(C)(C)C [Example 69, 2R-[(Formyl-hydroxy-amino)-methyl]-hexanoic acid {2,2-dimethyl-1S-[4-(4-methyl-[1,2,3]thiadiazole-5-carbonyl)-piperazine-1-carbonyl]-propyl}-amide] | 25 µM (≈ 12.4 µg/mL) | 
 |  | 200 µM (≈ 102 µg/mL) | CCCC[C@H](CN(O)C=O)C(=O)N[C@H](C(=O)N1CCN(C(=O)c2sc(C)nc2C)CC1)C(C)(C)C [Example 74, 2R-[(Formyl-hydroxy-amino)-methyl]-hexanoic acid {1S-[4-(2,4-dimethyl-thiazole-5-carbonyl)-piperazine-1-carbonyl]-2,2-dimethyl-propyl}-amide] | 25 µM (≈ 12.7 µg/mL) | 
